Results as given in article PMC11671526, “β-caryophyllene sensitizes hepatocellular carcinoma cells to chemotherapeutics and inhibits cell malignancy through targeting MAPK signaling pathway” (Frontiers in Pharmacology, 2024).

Assays:
HepG2 cells [1] = test: Matrigel transwell invasion assay; type: cell-based, human; details: 48 h, vs control
Procedure: (§1) The transwell migration and invasion experiments were conducted using a 24-well plate (cat# 3422, Corning). HepG2 and SMMC-7721 cells (5 × 10^4) were suspended in 100 µL of medium supplied with ethanol, 150 and 300 µM of BCP and added to the top chamber, while 600 µL of complete medium containing 10% FBS was added into the lower chamber. After 48 h of incubation at 37°C, the cells from the top chamber were carefully removed using a cotton swab, while the cells penetrated through the membrane were fixed using 600 µL of 70% methanol for 15 min. To stain the cells, 600 µL of 0.2% crystal violet was used to treat the Transwell inserts for 10 min, followed by washing and drying, and the membranes of the inserts were photographed using an inverted microscope (Leica DM13000 B). The positive staining area was calculated using ImageJ software.
(§2) For invasion assay, Matrigel (Corning, cat# 356234) was used to precoat the top chamber. Cells (8 × 10^4) were added to the top chamber and the following procedure was the same as the migration assay described above.

SMMC-7721 cells [2] = test: Matrigel transwell invasion assay; type: cell-based, human; details: 48 h, vs control
Procedure: as §1, §2

HepG2 cells [3] = test: CCK8 viability of cells infected by pSL4-Flag vector or pSL4-Flag-PGF lentivirus; type: cell-based; details: Homo sapiens, HepG2, 48 h
Procedure: (§3) Cell viability assay using the CCK8 reagent (Bimake, Shanghai, China) was conducted according to the manufacturer’s instructions. The cell proliferation data were used to calculate the cell viability. Briefly, HepG2, SMMC-7721, and HL-7702 cells with a density of 5 × 10^3 cells/well were seeded into each well of 96-well plates and incubated overnight. […] After 48 h, 10 µL of CCK8 reagent was added to each well, followed by 2 h incubation at 37°C and measurement of absorbance at 450 nm using a microplate reader (Molecular Devices, LLC.). The cell viability percentage of all compounds or their combinations at certain concentrations during the treatment period was evaluated by normalizing absorbance at 450 nm to that of vehicle controls. The half maximal inhibitory concentrations (IC50) values were calculated using the GraphPad Prism 8 software.
(§4) The placental growth factor (PGF) coding sequence was amplified using gene specific primers and then subcloned into a lentiviral vector pSL4-Flag expressing the puromycin resistance gene to generate pSL4-Flag-PGF vector with a CMV promoter driving PGF expression. The primers used to amplify the PGF coding sequence, check the amplified DNA fragment and verify its ectopic expression are listed in Supplementary Table S1. Lentiviruses carrying pSL4-Flag-PGF and an empty pSL4-Flag vector were produced and used to infect HCC cells based on our previously reported procedure ([Wan et al., 2012]). Ectopic PGF expression was achieved by infecting HCC cells with pSL4-Flag-PGF lentivirus, and the control cells were produced by infecting HCC cells using lentivirus carrying the empty pSL4-Flag-vector.

SMMC-7721 cells [4] = test: as above; type: cell-based; details: Homo sapiens
Procedure: as §3, §4

HepG2 cells [5] = test: CCK8 cell viability assay; type: cell-based, human; details: Homo sapiens; HepG2, 48 h, individual treatment; read-out: IC50 (half maximal inhibitory concentration)
Procedure: (§5) Cell viability assay using the CCK8 reagent (Bimake, Shanghai, China) was conducted according to the manufacturer’s instructions. The cell proliferation data were used to calculate the cell viability. Briefly, HepG2, SMMC-7721, and HL-7702 cells with a density of 5 × 10^3 cells/well were seeded into each well of 96-well plates and incubated overnight. […] After 48 h, 10 µL of CCK8 reagent was added to each well, followed by 2 h incubation at 37°C and measurement of absorbance at 450 nm using a microplate reader (Molecular Devices, LLC.). […] The effects of the combinatorial inhibition were visualized by isobologram analyses ([Tallarida, 2001]). […] A line was drawn to link the two IC50 points. […] The dots above, on, or below the line indicate the “antagonistic,” “additive” and “synergistic” effects, respectively. The same method was used to obtain the CI value for the cotreatment of BCP and DDP.

[6] = system: HL-7702 normal liver cells; test: CCK8 cell viability assay; type: cell-based, human; details: Homo sapiens, L02; HL-7702, 48 h, individual treatment; read-out: IC50 (half maximal inhibitory concentration)
Procedure: as §5

SMMC-7721 cells [7] = test: CCK8 cell viability assay; type: cell-based, human; details: Homo sapiens; SMMC-7721, 48 h, individual treatment; read-out: IC50 (half maximal inhibitory concentration)
Procedure: as §5

HepG2 cells [8] = test: RT-qPCR of MAPK signaling pathway genes; type: cell-based, human; details: BCP-treated HepG2 cells vs control cells
Procedure: HepG2 cells were treated by 150 µM BCP or ethanol for 24 h, followed by total RNA extraction using the TRIzol reagent (Thermo Fisher Scientific, cat#15596026). The quality and concentration of RNA were examined by MOPS RNA electrophoresis and Eppendorf BioSpectrometer. The transcriptome analysis was performed by BGI-Wuhan China. The RNA-seq dataset of this study is accessible in the Gene Expression Omnibus (GEO) with an access number of GSE276099. The sequence library for each sample was prepared using the BGISEQ-500 platform with a 50-bp single-end (SE50) format. HISAT (v2.2.1) was used to align the clean reads to the reference genome and alignment of the clean reads to the reference genes was carried out using Bowtie2 (v2.4.5) ([Langmead and Salzberg, 2012]; [Kim et al., 2015]). Gene expression levels were calculated by RSEM (v1.3.1) ([Li and Dewey, 2011]). Analysis of differential gene expression was performed using edgeR in the Bioconductor software package ([Robinson et al., 2010]). Using a standard protocol, the RNA samples were also examined by reverse transcription and quantitative polymerase chain reaction (RT-qPCR). In brief, for reverse transcription, total RNA (1 μg) and gDNA wiper Mix were incubated at 42°C for 2 min. The samples were immediately incubated with a master mix containing 10 pmol/μL of poly (dT) primers at 37°C for 15 min and 85°C for 5 s. […]

SMMC-7721 cells [9] = test: Transwell migration assay; type: cell-based, human; details: 48 h, vs ethanol control
Procedure: as §1

`C=C1CC/C=C(\C)CC[C@@H]2[C@@H]1CC2(C)C` [BCP, β-caryophyllene] was tested. Which “decrease of Matrigel infiltration (invasion)” value (from here on “decrease”) (HepG2 cells [1]; HepG2, 150 µM) did it give?
Its value is 46.3%.

And the “decrease” value (HepG2 cells [1]; HepG2, 300 µM)?
Its value is 70.03%.

What about the “decrease” value (SMMC-7721 cells [2]; SMMC-7721, 150 µM) of the same compound?
The value was 17.67%.

What about the “decrease” value (SMMC-7721 cells [2]; SMMC-7721, 300 µM) of the same compound?
Its value is 49.64%.

What about the IC50 (HepG2 cells [3]; HepG2 cells carrying empty vector) of the same compound?
The IC50 was 178 µM.

And the IC50 (HepG2 cells [3]; HepG2 cells expressing Flag-PGF)?
The IC50 was 284 µM.

And the IC50 (SMMC-7721 cells [4]; SMMC-7721, SMMC-7721 cells carrying empty vector)?
The IC50 was 318 µM.

What about the IC50 (SMMC-7721 cells [4]; SMMC-7721, SMMC-7721 cells expressing Flag-PGF) of the same compound?
The IC50 was 405 µM.

What about the IC50 (HepG2 cells [5]) of the same compound?
Its IC50 is 194 ± 3.2 µM.

What about the IC50 [6] of the same compound?
The IC50 was 610.9 ± 2.72 µM.

And the IC50 (SMMC-7721 cells [7])?
The IC50 was 334.5 ± 2.96 µM.

And the “RT-qPCR verification of differential expression of NR4A1, CSF1R, PGF, ARTN, CACNA1E” value (HepG2 cells [8])?
The value was “confirmed”.

And the “reduction of cell migration” value (SMMC-7721 cells [9]; SMMC-7721, 150 µM)?
Its value is 18.06%.

And the “reduction of cell migration” value (SMMC-7721 cells [9]; SMMC-7721, 300 µM)?
Its value is 52.19%.
